Measurements reported in PubChem BioAssay (NCI).
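Briefly, cells in 96-well plates were exposed to five compound concentrations for 48 h, and endpoints were estimated by linear interpolation. GI50 = concentration required for 50% inhibition of growth. TGI marks complete inhibition of growth.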

Tests used:
Test in all cases: DTP human tumour cell line panel, 48 h
DU-145 prostate = test system: DU-145 prostate
SK-MEL-5 melanoma = test system: SK-MEL-5 melanoma
NCI/ADR-RES ovarian = test system: NCI/ADR-RES ovarian
ACHN renal = test system: ACHN renal
MCF7 breast = test system: MCF7 breast
UO-31 renal = test system: UO-31 renal
MOLT-4 leukemia = test system: MOLT-4 leukemia
OVCAR-5 ovarian = test system: OVCAR-5 ovarian
HCC-2998 colon = test system: HCC-2998 colon
M14 melanoma = test system: M14 melanoma
COLO 205 colon = test system: COLO 205 colon
HCT-116 colon = test system: HCT-116 colon
HS 578T breast = test system: HS 578T breast
HCT-15 colon = test system: HCT-15 colon
HL-60(TB) leukemia = test system: HL-60(TB) leukemia
786-0 renal = test system: 786-0 renal
SK-OV-3 ovarian = test system: SK-OV-3 ovarian
SF-268 CNS = test system: SF-268 CNS
K-562 leukemia = test system: K-562 leukemia
SK-MEL-2 melanoma = test system: SK-MEL-2 melanoma
MDA-MB-231 breast = test system: MDA-MB-231 breast
SNB-19 CNS = test system: SNB-19 CNS
IGROV1 ovarian = test system: IGROV1 ovarian
NCI-H460 lung = test system: NCI-H460 lung
T-47D breast = test system: T-47D breast
LOX IMVI melanoma = test system: LOX IMVI melanoma
PC-3 prostate = test system: PC-3 prostate
OVCAR-8 ovarian = test system: OVCAR-8 ovarian
SK-MEL-28 melanoma = test system: SK-MEL-28 melanoma
KM12 colon = test system: KM12 colon
U251 CNS = test system: U251 CNS
SW-620 colon = test system: SW-620 colon
NCI-H522 lung = test system: NCI-H522 lung
SN12C renal = test system: SN12C renal
SNB-75 CNS = test system: SNB-75 CNS
MDA-MB-435 = test system: MDA-MB-435
A498 renal = test system: A498 renal
SF-295 CNS = test system: SF-295 CNS
HT29 colon = test system: HT29 colon
BT-549 breast = test system: BT-549 breast
HOP-62 NSCLC = test system: HOP-62 NSCLC
OVCAR-4 ovarian = test system: OVCAR-4 ovarian
NCI-H226 lung = test system: NCI-H226 lung
UACC-257 melanoma = test system: UACC-257 melanoma
EKVX NSCLC = test system: EKVX NSCLC
A549 NSCLC = test system: A549 NSCLC
TK-10 renal = test system: TK-10 renal
MALME-3M melanoma = test system: MALME-3M melanoma
CAKI-1 renal = test system: CAKI-1 renal
UACC-62 melanoma = test system: UACC-62 melanoma
HOP-92 NSCLC = test system: HOP-92 NSCLC
SF-539 CNS = test system: SF-539 CNS

## Cc1ccc(C2CC(c3ccc(Nc4nc(NCCO)nc(Nc5ccc(Cl)cc5)n4)cc3)=Nc3c(N)nc(N)nc3N2)cc1 (centres undefined)
DU-145 prostate
  GI50: 1.76 µM
  TGI: 3.19 µM
SK-MEL-5 melanoma
  GI50: 1.56 µM
  TGI: 2.91 µM
NCI/ADR-RES ovarian
  GI50: 1.73 µM
  TGI: 3.48 µM
ACHN renal
  GI50: 1.72 µM
  TGI: 3.09 µM
MCF7 breast
  GI50: 1.46 µM
  TGI: 3.01 µM
UO-31 renal
  GI50: 1.64 µM
  TGI: 3 µM
MOLT-4 leukemia
  GI50: 1.38 µM
  TGI: 3.89 µM
OVCAR-5 ovarian
  GI50: 1.62 µM
  TGI: 3.01 µM
HCC-2998 colon
  GI50: 1.55 µM
  TGI: 2.93 µM
M14 melanoma
  GI50: 1.84 µM
  TGI: 3.32 µM
COLO 205 colon
  GI50: 1.67 µM
  TGI: 3.19 µM
HCT-116 colon
  GI50: 1.62 µM
  TGI: 2.97 µM
HS 578T breast
  GI50: 1.79 µM
  TGI: 4.36 µM
HCT-15 colon
  GI50: 1.48 µM
  TGI: 2.95 µM
HL-60(TB) leukemia
  GI50: 1.71 µM
  TGI: 4.71 µM
786-0 renal
  GI50: 1.64 µM
  TGI: 3.06 µM
SK-OV-3 ovarian
  GI50: 2.69 µM
  TGI: 7.33 µM
SF-268 CNS
  GI50: 1.81 µM
  TGI: 3.64 µM
K-562 leukemia
  GI50: 1.34 µM
  TGI: 3.92 µM
SK-MEL-2 melanoma
  GI50: 1.81 µM
  TGI: 3.4 µM
MDA-MB-231 breast
  GI50: 1.67 µM
  TGI: 3.26 µM
SNB-19 CNS
  GI50: 1.57 µM
  TGI: 3 µM
IGROV1 ovarian
  GI50: 1.65 µM
  TGI: 3.14 µM
NCI-H460 lung
  GI50: 1.8 µM
  TGI: 3.39 µM
T-47D breast
  GI50: 1.67 µM
  TGI: 3.65 µM
LOX IMVI melanoma
  GI50: 1.65 µM
  TGI: 3.07 µM
PC-3 prostate
  GI50: 1.74 µM
  TGI: 3.6 µM
OVCAR-8 ovarian
  GI50: 1.8 µM
  TGI: 3.69 µM
SK-MEL-28 melanoma
  GI50: 1.77 µM
  TGI: 3.16 µM
KM12 colon
  GI50: 1.97 µM
  TGI: 3.86 µM
U251 CNS
  GI50: 1.6 µM
  TGI: 3.01 µM
SW-620 colon
  GI50: 1.79 µM
  TGI: 3.31 µM
NCI-H522 lung
  GI50: 1.72 µM
  TGI: 3.47 µM
SN12C renal
  GI50: 1.79 µM
  TGI: 3.38 µM
SNB-75 CNS
  GI50: 1.62 µM
  TGI: 3.31 µM
MDA-MB-435
  GI50: 1.73 µM
  TGI: 3.13 µM
A498 renal
  GI50: 3.85 µM
  TGI: 17.7 µM
SF-295 CNS
  GI50: 1.63 µM
  TGI: 3.03 µM
HT29 colon
  GI50: 1.78 µM
  TGI: 3.56 µM
BT-549 breast
  GI50: 1.73 µM
  TGI: 3.14 µM
HOP-62 NSCLC
  GI50: 1.68 µM
  TGI: 3.2 µM
OVCAR-4 ovarian
  GI50: 1.85 µM
  TGI: 3.63 µM
NCI-H226 lung
  GI50: 16.7 µM
  TGI: 38.4 µM
UACC-257 melanoma
  GI50: 1.84 µM
  TGI: 3.46 µM
EKVX NSCLC
  GI50: 1.55 µM
  TGI: 2.97 µM
A549 NSCLC
  GI50: 1.74 µM
  TGI: 3.44 µM
TK-10 renal
  GI50: 1.9 µM
  TGI: 3.38 µM
MALME-3M melanoma
  GI50: 1.7 µM
  TGI: 3.37 µM
CAKI-1 renal
  GI50: 1.64 µM
  TGI: 3.06 µM
UACC-62 melanoma
  GI50: 1.82 µM
  TGI: 3.39 µM
HOP-92 NSCLC
  GI50: 1.3 µM
  TGI: 2.86 µM
SF-539 CNS
  GI50: 1.57 µM
  TGI: 2.97 µM
